Assay results from publication PMC6286779, “HLA-A2-Restricted Epitopes Identified from MTA1 Could Elicit Antigen-Specific Cytotoxic T Lymphocyte Response” (Journal of Immunology Research, 2018).

Columns and labels:
[1] = system: SW620 cells (HLA-A2+, MTA1+); test: LDH cytotoxicity assay, CTLs induced in HLA-A2.1/Kb transgenic mice; type: in vivo, human; conditions: HLA-A2.1/Kb transgenic mice, 100 μg peptide + 140 μg T helper epitope in IFA s.c. days 0, 5, 10; splenocytes restimulated 6 days; E/T 50 : 1; n = 5
Description: (§1) In vivo induction of peptide-specific CTLs was performed as previously described. Briefly, peptide (100 μg) and the IA^b-restricted HBV-core128 T helper epitope (140 μg) emulsified in incomplete Freund's adjuvant (IFA) were used to subcutaneously immunize at the base of the tail of HLA-A2.1/K^b transgenic mice three times on days 0, 5, and 10. On day 11, all mice were sacrificed through cervical dislocation. Spleen lymphocytes were isolated and restimulated once with 10 μg/ml peptide and 10 U/ml mIL-2 in vitro for an additional 6 days. LDH and IFN-γ ELISPOT assays were performed on day 6 after in vitro stimulation. […]
To test the effects of protein, each HLA-A2.1/K^b transgenic mouse was injected subcutaneously at the base of the tail with 100 μg MTA1(1–283) or the same volume of PBS emulsified in IFA twice on days 0 and 7. On day 14, spleen lymphocytes were harvested and stimulated by peptide pool (10 μg/ml) in vitro for another 6 days. LDH, IFN-γ ELISPOT, and IFN-γ intracellular cytokine staining assays were performed on day 6 after the in vitro stimulation. E/T ratios used in the LDH assay were 12.5 : 1, 25 : 1, and 50 : 1.
(§2) Cytotoxic activity of induced T cells was tested based on the quantitation of LDH release using the nonradioactive cytotoxicity assay kit (Promega, USA) at the gradient E/T ratio [29, 31]. Target cells which expressed different levels of MTA1 or peptide-pulsed T2 cells were used as target cells. The anti-human HLA-A2 antibody (BB7.2) was added 30 min before adding effector cells to determine the HLA restriction. Target cells (5 × 10^3/well) were cocultured with the effector cells at 37°C for 4 h. The percentage of specific lysis of the target cells was determined using the equation: percentage of specific lysis = [(experimental release − effector spontaneous release − target spontaneous release)/(target maximum release − target spontaneous release)] × 100.

[2] = system: SW620 incubated with an anti-human HLA-A2 antibody; test: LDH cytotoxicity assay, CTLs induced in vitro, HLA-A2 blocked; type: cell-based; conditions: peptide-induced CTLs, BB7.2 added 30 min before effectors
Description: (§3) CTL induction in vitro was conducted according to the procedures previously described. Briefly, PBMCs from eight HLA-A^∗02^+ healthy donors were isolated using Ficoll-Paque density gradient centrifugation and resuspended in RPMI 1640 medium supplemented with 10% FBS. Then, PBMCs were stimulated three times (once a week) with the indicated peptides (10 μg/ml) or protein MTA1(1–283) (at final concentrations of 0, 1, 10, 30, and 50 μg/ml) for 21 days. Human recombinant cytokine interleukin-2 (IL-2) (50 U/ml) was added on day 3 and 1 day after each stimulation. The cytotoxic assay (lactate dehydrogenase (LDH) assay) and IFN-γ secretion enzyme-linked immunospot (ELISPOT) assay were performed on day 21.
as §2

HLA-A*0201 molecules = HLA-A*0201 molecules (Homo sapiens, UniProt P04439, D140Y/D185E/D98H/E176V/E277Q/G131W/G231S/I119V/I121R/I166T/I218V/L300P/L318F/N151K/N90K/P208A/P217A/Q86G/Q94H/R138H/R169H/T345S); test: T2 binding assay; conditions: T2 cells 1 × 10^6 cells/ml, peptide 50 μg/ml, 3 μg/ml β2-M, serum-free RPMI 1640, 18 h, 37°C; BB7.2 staining, flow cytometry; FI > 1.5 = high affinity
Description: The binding affinity of these peptides to HLA-A^∗0201 was evaluated according to our previous study. Briefly, T2 cells (1 × 10^6 cells/ml) were incubated with each peptide (50 μg/ml) and 3 μg/ml human β2-microglobulin (β2-M, Merck, Germany) in serum-free RPMI 1640 medium for 18 h at 37°C in a humidified atmosphere of 5% CO2. Then cells were washed twice and incubated with the anti-human HLA-A2 PE-Cyanine7 mAb, BB7.2 (eBioscience, USA) for 0.5 h at 4°C. Finally, cells were collected, washed, and analyzed using flow cytometry (FACSCalibur, Becton Dickinson, USA). The fluorescence index (FI) calculation was performed as follows: FI = [(mean fluorescence intensity (MFI) of the given peptide − background) − (MFI of the PBS control group − background)]/[(MFI of the PBS control group − background)]. The MFI value of cells untreated with peptides and antibodies was employed as background. Peptides with an FI factor of more than 1.5 were classed as high-affinity candidates.

[3] = system: T2 cells pulsed with each peptide; test: LDH cytotoxicity assay, CTLs induced in HLA-A2.1/Kb transgenic mice; type: in vivo, human; conditions: 100 μg peptide + 140 μg T helper epitope in IFA s.c. days 0, 5, 10, splenocytes restimulated 6 days, E/T 50 : 1, n = 5
Description: as §1, §2

[4] = system: MDA-MB-231 (HLA-A2+, MTA1+); test: LDH cytotoxicity assay, CTLs induced in vitro; type: cell-based, human; conditions: CTLs induced by peptide 10 μg/ml from donor no. 6; E/T 50 : 1; LDH release, 4 h; n = 3
Description: as §3, §2

HT-29 (HLA-A2−, MTA1+) = test: LDH cytotoxicity assay, CTLs induced in vitro; type: cell-based, human; conditions: peptide-induced CTLs, HLA-A2-negative control target
Description: as §3, §2

SW620 (HLA-A2+, MTA1+) = test: LDH cytotoxicity assay, CTLs induced in vitro; type: cell-based, human; conditions: CTLs induced by peptide 10 μg/ml from donor no. 6; E/T 50 : 1; LDH release, 4 h; n = 3
Description: as §3, §2

[5] = target: T1, peptide/HLA-A*0201 complexes (Homo sapiens, UniProt P04439, D140Y/D185E/D98H/E176V/E277Q/G131W/G231S/I119V/I121R/I166T/I218V/L300P/L318F/N151K/N90K/P208A/P217A/Q86G/Q94H/R138H/R169H/T345S); test: T2 stabilization (stability) assay; type: binding; conditions: T2 cells, peptide 50 μg/ml, 18 h, then brefeldin A 10 μg/ml 1 h; read at 0, 2, 4, 6 h, 37°C; flow cytometry
T1 construct: endogenous in cells; host or cells: T2 lymphoblastic cell line (TAP-deficient)
Description: For the stability assay, each of the selected peptides (50 μg/ml) was incubated with T2 cells (1 × 10^6 cells/ml) for 18 h in serum-free RPMI 1640 medium supplemented with 3 μg/ml β2-M at 37°C. Thereafter, cells were washed twice and incubated with brefeldin A (10 μg/ml, eBiosciences, USA) for 1 h. Subsequently, the cells were washed and incubated for 0, 2, 4, and 6 h at 37°C. Cells were washed twice, stained with BB7.2 for 0.5 h at 4°C. Finally, cells were collected, washed, and analyzed by flow cytometry. Dissociation complex 50 (DC50) was defined as time (t) required for the loss of 50% of the HLA-A^∗0201/peptide complexes stabilized at 0 h.

TLLNETESL [Peptide P129]
lysis rate of SW620 cells, CTLs induced in vivo [1]: 51.81%
lysis of SW620 cells incubated with an HLA-A2 blocking antibody [2]: did not lyse
FI (fluorescence index) (HLA-A*0201 molecules): 1.28
lysis rate of peptide-pulsed T2 target cells, CTLs induced in vivo [3]: 31.6%
lysis rate of MDA-MB-231 cells [4]: 14.1%
lysis of HT-29 cells (HT-29 (HLA-A2−, MTA1+)): did not lyse
lysis rate of SW620 cells (SW620 (HLA-A2+, MTA1+)): 38.4%
DC50: time required for the loss of 50% of the HLA-A*0201/peptide complexes stabilized at 0 h [5]: >6 h

YLIRRIEEL [Peptide P22]
lysis rate of SW620 cells, CTLs induced in vivo [1]: 37.29%
lysis of SW620 cells incubated with an HLA-A2 blocking antibody [2]: did not lyse
FI (fluorescence index) (HLA-A*0201 molecules): 2.08
lysis rate of peptide-pulsed T2 target cells, CTLs induced in vivo [3]: 22.43%
lysis rate of MDA-MB-231 cells [4]: 24.8%
lysis of HT-29 cells (HT-29 (HLA-A2−, MTA1+)): did not lyse
lysis rate of SW620 cells (SW620 (HLA-A2+, MTA1+)): 71.4%
DC50: time required for the loss of 50% of the HLA-A*0201/peptide complexes stabilized at 0 h [5]: >2 h
